Measurements published in US20040142971A1, “BENZOTHIOPHENE COMPOUNDS HAVING ANTIINFECTIVE ACTIVITY” (GeneSoft, Inc., priority 2001, published 2004).

Key:
Assay in all cases: MIC, NCCLS broth microdilution
B. Cereus ATCC 11778 = type: cell-based, Bacillus cereus; settings: A = B. Cereus ATCC 11778
Source text: (§1) In vitro biological activity data were collected for a variety of microorganisms, including Bacillus cereus (ATCC 11778), Staphylococcus aureus (ATCC 27660 (a methicillin resistant strain (MRSA), ATCC 33591 and ATCC 43300); ATCC 13709, a methicillin sensitive strain (MSSA)); Streptococcus pneumoniae (ATCC 51422, a penicillin resistant strain (PRSP)), Enterococcus faecium (ATCC 51559, a vancomycin resistant strain (VRE)), and Staphylococcus epidermidis (ATCC 700586, a methycillin resistant strain (MRSE)). Additionally, antifungal activity data were collected for Candida albicans (ATCC 38247). Minimal inhibition concentrations (MIC's) were determined using the National Committee for Clinical Laboratory Standards (NCCLS) broth microdilution assay in microtiter plates, as set forth in: (1) the guidelines of the National Committee for Clinical Laboratory Standards (NCCLS) Document M7-A4 (NCCLS, 1997); (2) the guidelines of the National Committee for Clinical Laboratory Standards (NCCLS) Document M11-A4 (NCCLS, 1997); and (3) the guidelines and reference method of the National Committee for Clinical Laboratory Standards (NCCLS) Document M27-T (NCCLS, 1995). For antifungal essays, the method recommended in Murray, PR., 1995 Manual of Clinical Microbiology (ASM Press, Washington, D.C.), was employed.

[1] = system: S. aureus ATCC 13709 (methicillin sensitive strain, MSSA); type: cell-based, Staphylococcus aureus; settings: C = S. aureus ATCC 13709
Source text: as §1

[2] = system: S. aureus ATCC 27660 (methicillin resistant strain, MRSA); type: cell-based, Staphylococcus aureus; settings: D = S. aureus ATCC 27660
Source text: as §1

S. aureus ATCC 33591 = type: cell-based, Staphylococcus aureus; settings: E = S. aureus ATCC 33591
Source text: as §1

[3] = system: E. faecium ATCC 51559 (vancomycin resistant strain, VRE); type: cell-based, Enterococcus faecium; settings: B = E. faecium ATCC 51559
Source text: as §1

[4] = system: S. epidermidis ATCC 700586 (methycillin resistant strain, MRSE); type: cell-based, Staphylococcus epidermidis; settings: G = S. epidermidis ATCC 700586
Source text: as §1

## Cn1cc(NC(=O)c2cc(NC(=O)c3cc(NC(=O)c4cc5cc6c(cc5s4)OCO6)cn3C)cn2C)cc1C(=O)NCCN1CCOCC1 [Ib-20v]
B. Cereus ATCC 11778
  Minimum Inhibitory Concentration (MIC): +++ (+++ = MIC ≦ 4)
[1]
  Minimum Inhibitory Concentration (MIC): +++ (+++ = MIC ≦ 4)
[2]
  Minimum Inhibitory Concentration (MIC): +++ (+++ = MIC ≦ 4)
S. aureus ATCC 33591
  Minimum Inhibitory Concentration (MIC): +++ (+++ = MIC ≦ 4)

## Cn1cc(NC(=O)c2cc3cc4c(cc3s2)OCO4)cc1C(=O)NCCN1CCSCC1 [Ib-20w]
B. Cereus ATCC 11778
  Minimum Inhibitory Concentration (MIC): +++ (+++ = MIC ≦ 4)
[1]
  Minimum Inhibitory Concentration (MIC): +++ (+++ = MIC ≦ 4)
[2]
  Minimum Inhibitory Concentration (MIC): +++ (+++ = MIC ≦ 4)
S. aureus ATCC 33591
  Minimum Inhibitory Concentration (MIC): +++ (+++ = MIC ≦ 4)

## Cn1cc(NC(=O)c2cc3cc4c(cc3s2)OCO4)cc1C(=O)NCCN1CCCC1 [Ib-20x]
B. Cereus ATCC 11778
  Minimum Inhibitory Concentration (MIC): +++ (+++ = MIC ≦ 4)
[1]
  Minimum Inhibitory Concentration (MIC): +++ (+++ = MIC ≦ 4)
[2]
  Minimum Inhibitory Concentration (MIC): +++ (+++ = MIC ≦ 4)
S. aureus ATCC 33591
  Minimum Inhibitory Concentration (MIC): +++ (+++ = MIC ≦ 4)

## Cn1cc(NC(=O)c2cc(NC(=O)c3cc(NC(=O)c4cc5ccccc5cn4)cs3)cn2C)cc1C(=O)NCCN1CCOCC1 [Ib-51]
B. Cereus ATCC 11778
  Minimum Inhibitory Concentration (MIC): +++ (+++ = MIC ≦ 4)
[1]
  Minimum Inhibitory Concentration (MIC): +++ (+++ = MIC ≦ 4)
[2]
  Minimum Inhibitory Concentration (MIC): +++ (+++ = MIC ≦ 4)

## Cn1cc(NC(=O)c2cc3ccccc3cn2)cc1C(=O)Nc1cc(C(=O)Nc2cc(C(=O)NCCN3CCOCC3)ns2)n(C)c1 [Ib-52]
B. Cereus ATCC 11778
  Minimum Inhibitory Concentration (MIC): +++ (+++ = MIC ≦ 4)
[1]
  Minimum Inhibitory Concentration (MIC): +++ (+++ = MIC ≦ 4)
[2]
  Minimum Inhibitory Concentration (MIC): ++ (++ = MIC between 4 and 12)

## CCN(CC)CCNC(=O)c1cc(NC(=O)c2cc(NC(=O)c3cc(NC(=O)c4cc5ccccc5cn4)cn3C)cn2C)sn1 [Ib-53]
B. Cereus ATCC 11778
  Minimum Inhibitory Concentration (MIC): ++ (++ = MIC between 4 and 12)
[1]
  Minimum Inhibitory Concentration (MIC): ++ (++ = MIC between 4 and 12)
[2]
  Minimum Inhibitory Concentration (MIC): + (+ = MIC from 12 to 32, inclusive)

## Cn1cc(NC(=O)c2cc3ccccc3cn2)cc1C(=O)Nc1cc(C(=O)Nc2c[nH]c(C(=O)NCCN3CCSCC3)c2)n(C)c1 [Ib-54]
B. Cereus ATCC 11778
  Minimum Inhibitory Concentration (MIC): ++ (++ = MIC between 4 and 12)
[1]
  Minimum Inhibitory Concentration (MIC): + (+ = MIC from 12 to 32, inclusive)
[2]
  Minimum Inhibitory Concentration (MIC): + (+ = MIC from 12 to 32, inclusive)

## Cn1cc(NC(=O)c2cc(NC(=O)c3cc(NC(=O)c4cc5ccccc5cn4)cn3C)cn2CCN2CCOCC2)cc1C(=O)NCCN1CCOCC1 [Ib-57]
B. Cereus ATCC 11778
  Minimum Inhibitory Concentration (MIC): +++ (+++ = MIC ≦ 4)
[1]
  Minimum Inhibitory Concentration (MIC): +++ (+++ = MIC ≦ 4)
[2]
  Minimum Inhibitory Concentration (MIC): +++ (+++ = MIC ≦ 4)
S. aureus ATCC 33591
  Minimum Inhibitory Concentration (MIC): +++ (+++ = MIC ≦ 4)

## Cn1cc(NC(=O)c2cc3ccccc3cn2)cc1C(=O)Nc1cc(C(=O)Nc2cn(C)c(C(=O)NCCN3CCOCC3)n2)n(C)c1 [Ib-58]
B. Cereus ATCC 11778
  Minimum Inhibitory Concentration (MIC): +++ (+++ = MIC ≦ 4)
[1]
  Minimum Inhibitory Concentration (MIC): +++ (+++ = MIC ≦ 4)
[2]
  Minimum Inhibitory Concentration (MIC): +++ (+++ = MIC ≦ 4)
S. aureus ATCC 33591
  Minimum Inhibitory Concentration (MIC): +++ (+++ = MIC ≦ 4)

## CN(C)CCSCCn1cc(NC(=O)c2cc3ccccc3cn2)cc1C(=O)Nc1cc(C(=O)Nc2ccc3cnccc3c2)n(C)c1 [Ib-73]
B. Cereus ATCC 11778
  Minimum Inhibitory Concentration (MIC): +++ (+++ = MIC ≦ 4)
[1]
  Minimum Inhibitory Concentration (MIC): +++ (+++ = MIC ≦ 4)
[2]
  Minimum Inhibitory Concentration (MIC): +++ (+++ = MIC ≦ 4)
S. aureus ATCC 33591
  Minimum Inhibitory Concentration (MIC): +++ (+++ = MIC ≦ 4)

## Cn1cc(NC(=O)c2cc(NC(=O)c3cc(NC(=O)c4cc5ccccc5cn4)c[nH]3)cn2C)cc1C(=O)NCCc1ccncc1 [Ib-76]
B. Cereus ATCC 11778
  Minimum Inhibitory Concentration (MIC): +++ (+++ = MIC ≦ 4)
[3]
  Minimum Inhibitory Concentration (MIC): +++ (+++ = MIC ≦ 4)
[1]
  Minimum Inhibitory Concentration (MIC): +++ (+++ = MIC ≦ 4)
[2]
  Minimum Inhibitory Concentration (MIC): +++ (+++ = MIC ≦ 4)
S. aureus ATCC 33591
  Minimum Inhibitory Concentration (MIC): +++ (+++ = MIC ≦ 4)
[4]
  Minimum Inhibitory Concentration (MIC): +++ (+++ = MIC ≦ 4)

## Cn1cc(NC(=O)c2cc(NC(=O)c3cc(NC(=O)c4cc5ccccc5cn4)c[nH]3)cn2C)cc1C(=O)NCCN1CCC(F)(F)CC1 [Ib-78]
B. Cereus ATCC 11778
  Minimum Inhibitory Concentration (MIC): +++ (+++ = MIC ≦ 4)
[1]
  Minimum Inhibitory Concentration (MIC): +++ (+++ = MIC ≦ 4)
[2]
  Minimum Inhibitory Concentration (MIC): +++ (+++ = MIC ≦ 4)
S. aureus ATCC 33591
  Minimum Inhibitory Concentration (MIC): +++ (+++ = MIC ≦ 4)

## Cn1cc(NC(=O)c2cc3ccccc3cn2)cc1C(=O)Nc1cc(C(=O)Nc2ccc3sc(C(=O)NCCN4CCOCC4)cc3c2)n(C)c1 [Id-1]
B. Cereus ATCC 11778
  Minimum Inhibitory Concentration (MIC): >32 µg/mL
